For assay [1], the system named is MCF-10A. Briefly: Antitumor activity against human spontaneously immortalized wild type MCF-10A cells assessed as cell numbers measured after 48 hrs. The conditions noted are these: Homo sapiens, MCF-10A, 48 h; read-out: EC50. Format: functional, cell-based.
The subject of assay [2] is MCF-10A. Briefly: Antitumor activity against human spontaneously immortalized CDH-/- MCF10A cells assessed as cell numbers measured after 48 hrs. The format is functional, cell-based. The conditions noted are these: Homo sapiens, MCF-10A, 48 h; read-out: EC50.
Assay [3] in a line: Ratio of EC50 for antitumor activity against human spontaneously immortalized wild type MCF10A cells assessed as cell numbers measured after 48 hrs to antitumor activity against human spontaneously immortalized CDH-/- MCF10A cells assessed as cell numbers measured after 48 hrs. Format: functional, MCF-10A.
The subject of assay [4] is MCF-10A. The assay is described as follows: Antitumor activity against human spontaneously immortalized CDH-/- MCF10A cells assessed as cell numbers at 3.13 uM measured after 48 hrs. The format is functional.
Assay [5] concerns NCI-N87. Briefly: Antitumor activity against human wild type NCI-N87 cells assessed as cell numbers measured after 48 hrs. The format is functional, cell-based. The note with it: NCI-N87, 48 h.
Assay [6] concerns NCI-N87. The assay is described as follows: Antitumor activity against human CDH-/- NCI-N87cells assessed as cell numbers measured after 48 hrs. The format is functional, cell-based. The conditions noted are these: NCI-N87, 48 h.
Assay [7] is described as follows: Ratio of EC50 for antitumor activity against human NCI-N87 cells assessed as cell numbers measured after 48 hrs to antitumor activity against human CDH-/- NCI-N87 cells assessed as cell numbers measured after 48 hrs. Format: functional.
Assay [8] has as its system MCF-10A. Briefly: Induction of apoptosis in human spontaneously immortalized wild type MCF10A cells assessed as apoptotic cells at 12.5 uM measured after 48 hrs by flow cytometry-based annexin-V-FITC/propidium iodide (PI) apoptosis assay. Format: functional.
The subject of assay [9] is MCF-10A. Briefly: Induction of apoptosis in human spontaneously immortalized CDH-/- MCF10A cells assessed as apoptotic cells at 12.5 uM measured after 48 hrs by flow cytometry-based annexin-V-FITC/propidium iodide (PI) apoptosis assay. The format is functional. (In general: Flow cytometry measures light scatter and fluorescence of single cells or particles in a stream.)

In assay [10] the test system is MCF-10A. The assay is described as follows: Induction apoptosis in human spontaneously immortalized wild type MCF10A cells assessed as viable cells at 6.25 uM measured after 48 hrs by flow cytometry-based annexin-V-FITC/propidium iodide apoptosis assay (reference value: 94.4%). The format is functional. The note with it: read-out: Activity.
Assay [11] deals with MCF-10A. Briefly: Induction apoptosis in human spontaneously immortalized wild type MCF10A cells assessed as early apoptotic cells at 6.25 uM measured after 48 hrs by flow cytometry-based annexin-V-FITC/propidium iodide (PI) apoptosis assay (reference value: 1.2%). The format is functional.
The subject of assay [12] is MCF-10A. Briefly: Induction apoptosis in human spontaneously immortalized wild type MCF10A cells assessed as late apoptotic cells at 6.25 uM measured after 48 hrs by flow cytometry-based annexin-V-FITC/propidium iodide (PI) apoptosis assay (reference value: 4.2%). Format: functional.
Assay [13] concerns MCF-10A. Briefly: Induction apoptosis in human CDH-/- MCF10A cells assessed as viable cells at 6.25 uM measured after 48 hrs by flow cytometry-based annexin-V-FITC/propidium iodide (PI) apoptosis assay (reference value: 93.6%). The format is functional. The conditions noted are these: read-out: Activity.
Assay [14] has as its system MCF-10A. Briefly: Induction apoptosis in human CDH-/- MCF10A cells assessed as early apoptotic cells at 6.25 uM measured after 48 hrs by flow cytometry-based annexin-V-FITC/propidium iodide (PI) apoptosis assay (reference value: 2.9%). Format: functional.
Assay [15] has as its system MCF-10A. Briefly: Induction apoptosis in human CDH-/- MCF10A cells assessed as late apoptotic cells at 6.25 uM measured after 48 hrs by flow cytometry-based annexin-V-FITC/propidium iodide (PI) apoptosis assay (reference value: 3.2%). Format: functional.
Assay [16] concerns MCF-10A. The assay is described as follows: Induction apoptosis in human spontaneously immortalized wild type MCF10A cells assessed as necrotic cells at 3.25 uM measured after 48 hrs by flow cytometry-based annexin-V-FITC/propidium iodide (PI) apoptosis assay. Format: functional.
The subject of assay [17] is MCF-10A. The assay is described as follows: Induction apoptosis in human spontaneously immortalized wild type MCF10A cells assessed as necrotic cells at 6.25 uM measured after 48 hrs by flow cytometry-based annexin-V-FITC/propidium iodide (PI) apoptosis assay. The format is functional.
Assay [18] in a line: Anticancer activity against mouse mammary organoids assessed as reduction in growth by measuring TdTom CdhI-/- at 12.5 uM incubated for 48 hrs. Format: functional, Mammary gland. On the set-up: scale not given: the % may be the effect or the level left.
Assay [19] in a line: Anticancer activity against mouse gastric organoids assessed as reduction in growth by measuring TdTom CdhI-/- at 1.56 uM incubated for 48 hrs. Format: functional, Gastric gland. More on the design: scale not given: the % may be the effect or the level left.
Assay [20] concerns MCF-10A. Briefly: Binding affinity to TCOF1 in human spontaneously immortalized CDH-/- MCF10A cell lysates assessed as change in melting temperature at 3.125 uM for 3 hrs by thermal proteome profiling assay.
Assay [21] deals with SUMO-conjugating enzyme UBC9 (Homo sapiens) (UniProt P63279). Briefly: Binding affinity to SUMO-conjugating UBC9 in human spontaneously immortalized CDH-/- MCF10A cell lysates assessed as change in melting temperature at 3.125 uM for 3 hrs by thermal proteome profiling assay. The conditions noted are these: MCF-10A.
Assay [22] concerns the target Actin-related protein 2/3 complex subunit 5 (Homo sapiens) (UniProt O15511). The assay is described as follows: Binding affinity to ARPC5 in human spontaneously immortalized CDH-/- MCF10A cell lysates assessed as change in melting temperature at 3.125 uM for 3 hrs by thermal proteome profiling assay. The note with it: MCF-10A.
A further assay is filed under the species Homo sapiens. The assay is described as follows: Inhibition of SUMOylation of GST-tagged RanGAP1 (unknown origin) protein using SUMO1 and UBC9 up to 3.13 uM by Western blotting analysis. For orientation: Immunoblotting shows a protein as a band on a membrane.

Molecules are shown by their SMILES. pEC50: −log10 of the molar value. Active and inactive are the calls of the source. The rule behind the calls is not given here.

Sequence of SUMO-conjugating enzyme UBC9 (Homo sapiens) (P63279 whole entry): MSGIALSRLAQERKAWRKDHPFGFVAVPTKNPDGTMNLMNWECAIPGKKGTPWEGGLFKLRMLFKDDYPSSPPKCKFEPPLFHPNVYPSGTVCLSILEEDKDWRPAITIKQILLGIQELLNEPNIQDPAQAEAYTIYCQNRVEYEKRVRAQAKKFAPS

For the compound `COc1ccc2nc(CO)cc(NCc3ccc(F)cc3)c2c1`, the pEC50 (in general, −log10 of the EC50, conventionally taken in molar units) with MCF-10A [1] was 4.51; in the assay on MCF-10A [2], 4.68. For the same compound, the “Ratio EC50” value in assay [3] is on record as 1.5. Also, the inhibition – broadly, the percentage by which the read-out fell short of the control – at 3.13 µM in the assay on MCF-10A [4] is 10%.

As for `Cc1cc(NCc2ccc(F)cc2)c2cc(OCCCN3CCCC3)ccc2n1`, the pEC50 with MCF-10A [1] is 5.49; in the assay on MCF-10A [2], 5.70; in the assay with NCI-N87 [5], 5.07; in the assay with NCI-N87 [6], 4.79. In addition, the figures for the “Ratio EC50” value in [3] and in [7] were 1.6 and 1.9, respectively. Besides, in the assay on MCF-10A [4], the inhibition at 3.13 µM was found to be 70%. The Activity with MCF-10A [8] is >90%; with MCF-10A [9], >90%; in the assay on MCF-10A [11], 23.5%; in the assay on MCF-10A [12] it was 11.2%; in the assay on MCF-10A [14] it was 24.7%; in the assay with MCF-10A [15], 48%. In addition, the Activity was found to be 5% in the assay on MCF-10A [16], 32% in the assay with MCF-10A [17], 21.3% in assay [18] and 40% in assay [19]. Moreover, the viability at 6.25 µM amounted to 64.9% with MCF-10A [10] and 26.7% in the assay with MCF-10A [13]. Also, the figures for the thermal shift (ΔTm) (in the assay with MCF-10A [20]; in assay [21]; in assay [22]) were 8.32 °C, 5.71 °C and 3.72 °C, respectively. Moreover, the inhibition result in the assay filed under Homo sapiens was “Active”.

On to `COc1ccc2nc(C)cc(NCc3ccc(F)c(F)c3)c2c1`, for which the negative logarithm of the EC50 (pEC50) in the assay on MCF-10A [1] is 4.92; in the assay with MCF-10A [2], 5.04. In addition, the “Ratio EC50” value in [3] amounted to 1.3.

Turning to `COc1ccc2nc(C)cc(NCc3cc(F)cc(F)c3)c2c1`, the negative-log EC50 (pEC50) is 4.74 in the assay on MCF-10A [1] and 4.88 with MCF-10A [2]. In addition, the “Ratio EC50” value in assay [3] is listed as 1.1.

As to `COc1ccc2nc(C)cc(NCc3cccc4ccccc34)c2c1`, the negative logarithm of the EC50 (pEC50) was 4.30 in the assay on MCF-10A [1] and 5.39 in the assay with MCF-10A [2]. Further, the “Ratio EC50” value in assay [3] was found to be 12.

On to `COc1cc2c(NC3CCN(C)CC3)cc(C)nc2cc1OCCCN1CCCC1`, for which the pEC50 in the assay with MCF-10A [1] was 4.41; with MCF-10A [2] it was 4.39. Also, in assay [3], the “Ratio EC50” value was determined as 1.

Turning to `COc1ccc2c(NCc3ccc(F)cc3)cc(C)nc2c1`, the pEC50 in the assay on MCF-10A [1] was 4.80; in the assay with MCF-10A [2] it was 4.99. Further, the “Ratio EC50” value in assay [3] is 1.6. The inhibition at 3.13 µM in the assay with MCF-10A [4] is 10%.

Values taken from ChEMBL document CHEMBL5055686, “Discovery of AL-GDa62 as a Potential Synthetic Lethal Lead for the Treatment of Gastric Cancer” (J Med Chem, 2021).
